# Test results from PubChem BioAssay (NCI).
# “And” between values parts separate entries of the source, which are not always exact repeats. Equal entries are not always repeated.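 Tested at 5 concentrations; 48 h exposure; 96-well plates; endpoints linearly interpolated, else capped at highest concentration. GI50 marks 50% less growth. TGI: total growth inhibition.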
# How the values were obtained:
# Test in all cases: NCI-60 cell line screen, 48 h
# A498 renal = test system: A498 renal
# ACHN renal = test system: ACHN renal
# BT-549 breast = test system: BT-549 breast
# CAKI-1 renal = test system: CAKI-1 renal
# EKVX NSCLC = test system: EKVX NSCLC
# HCT-15 colon = test system: HCT-15 colon
# HL-60(TB) leukemia = test system: HL-60(TB) leukemia
# HOP-62 NSCLC = test system: HOP-62 NSCLC
# HS 578T breast = test system: HS 578T breast
# K-562 leukemia = test system: K-562 leukemia
# LOX IMVI melanoma = test system: LOX IMVI melanoma
# MDA-MB-231 breast = test system: MDA-MB-231 breast
# NCI-H226 lung = test system: NCI-H226 lung
# NCI/ADR-RES ovarian = test system: NCI/ADR-RES ovarian
# OVCAR-3 ovarian = test system: OVCAR-3 ovarian
# OVCAR-4 ovarian = test system: OVCAR-4 ovarian
# OVCAR-5 ovarian = test system: OVCAR-5 ovarian
# RXF 393 renal = test system: RXF 393 renal
# SF-268 CNS = test system: SF-268 CNS
# SK-MEL-2 melanoma = test system: SK-MEL-2 melanoma
# SK-MEL-28 melanoma = test system: SK-MEL-28 melanoma
# SK-MEL-5 melanoma = test system: SK-MEL-5 melanoma
# SK-OV-3 ovarian = test system: SK-OV-3 ovarian
# SNB-75 CNS = test system: SNB-75 CNS
# SR leukemia = test system: SR leukemia
# T-47D breast = test system: T-47D breast
# UACC-257 melanoma = test system: UACC-257 melanoma
# UACC-62 melanoma = test system: UACC-62 melanoma
# UO-31 renal = test system: UO-31 renal
# 786-0 renal = test system: 786-0 renal
# A549 NSCLC = test system: A549 NSCLC
# CCRF-CEM leukemia = test system: CCRF-CEM leukemia
# COLO 205 colon = test system: COLO 205 colon
# DU-145 prostate = test system: DU-145 prostate
# HCC-2998 colon = test system: HCC-2998 colon
# HCT-116 colon = test system: HCT-116 colon
# HT29 colon = test system: HT29 colon
# IGROV1 ovarian = test system: IGROV1 ovarian
# KM12 colon = test system: KM12 colon
# M14 melanoma = test system: M14 melanoma
# MALME-3M melanoma = test system: MALME-3M melanoma
# MCF7 breast = test system: MCF7 breast
# MDA-MB-435 = test system: MDA-MB-435
# NCI-H23 lung = test system: NCI-H23 lung
# NCI-H460 lung = test system: NCI-H460 lung
# NCI-H522 lung = test system: NCI-H522 lung
# OVCAR-8 ovarian = test system: OVCAR-8 ovarian
# PC-3 prostate = test system: PC-3 prostate
# RPMI-8226 leukemia = test system: RPMI-8226 leukemia
# SF-295 CNS = test system: SF-295 CNS
# SF-539 CNS = test system: SF-539 CNS
# SN12C renal = test system: SN12C renal
# SNB-19 CNS = test system: SNB-19 CNS
# SW-620 colon = test system: SW-620 colon
# TK-10 renal = test system: TK-10 renal
# U251 CNS = test system: U251 CNS
smiles,measurement,setting,value
CCCCCCCCCCCCCCCC[N+](C)(C)CCN(Cc1ccc(OC)cc1)c1ncccn1,GI50,A498 renal,1.69 µM
same,TGI,A498 renal,5.21 µM
same,GI50,ACHN renal,8.54 µM
same,TGI,ACHN renal,32.9 µM
same,GI50,BT-549 breast,2.43 µM
same,TGI,BT-549 breast,5.83 µM
same,GI50,CAKI-1 renal,8.14 µM
same,TGI,CAKI-1 renal,34 µM
same,GI50,EKVX NSCLC,1.89 µM
same,TGI,EKVX NSCLC,7.52 µM
same,GI50,HCT-15 colon,18.6 µM
same,TGI,HCT-15 colon,60.1 µM
same,GI50,HL-60(TB) leukemia,1.4 µM and 0.661 µM
same,TGI,HL-60(TB) leukemia,3.99 µM and 4.79 µM
same,GI50,HOP-62 NSCLC,1.54 µM
same,TGI,HOP-62 NSCLC,2.95 µM
same,GI50,HS 578T breast,1.76 µM
same,TGI,HS 578T breast,4.4 µM
same,GI50,K-562 leukemia,0.838 µM
same,TGI,K-562 leukemia,> 100 µM
same,GI50,LOX IMVI melanoma,1.17 µM
same,TGI,LOX IMVI melanoma,3.33 µM
same,GI50,MDA-MB-231 breast,2 µM
same,TGI,MDA-MB-231 breast,4.94 µM
same,GI50,NCI-H226 lung,2.77 µM
same,TGI,NCI-H226 lung,14 µM
same,GI50,NCI/ADR-RES ovarian,18.7 µM and 3.94 µM
same,TGI,NCI/ADR-RES ovarian,64 µM and > 100 µM
same,GI50,OVCAR-3 ovarian,1.14 µM
same,TGI,OVCAR-3 ovarian,3.32 µM
same,GI50,OVCAR-4 ovarian,1.85 µM
same,TGI,OVCAR-4 ovarian,4.88 µM
same,GI50,OVCAR-5 ovarian,1.91 µM
same,TGI,OVCAR-5 ovarian,4.62 µM
same,GI50,RXF 393 renal,1.52 µM and 0.821 µM
same,TGI,RXF 393 renal,3.49 µM and 2.43 µM
same,GI50,SF-268 CNS,1.39 µM
same,TGI,SF-268 CNS,3.74 µM
same,GI50,SK-MEL-2 melanoma,2.88 µM
same,TGI,SK-MEL-2 melanoma,6.95 µM
same,GI50,SK-MEL-28 melanoma,2.1 µM
same,TGI,SK-MEL-28 melanoma,4.5 µM
same,GI50,SK-MEL-5 melanoma,2.68 µM
same,TGI,SK-MEL-5 melanoma,8.77 µM
same,GI50,SK-OV-3 ovarian,2.24 µM
same,TGI,SK-OV-3 ovarian,7.24 µM
same,GI50,SNB-75 CNS,2.28 µM
same,TGI,SNB-75 CNS,6.53 µM
same,GI50,SR leukemia,1.25 µM
same,TGI,SR leukemia,> 100 µM
same,GI50,T-47D breast,1.28 µM
same,TGI,T-47D breast,2.98 µM
same,GI50,UACC-257 melanoma,5.65 µM
same,TGI,UACC-257 melanoma,39.8 µM
same,GI50,UACC-62 melanoma,1.75 µM
same,TGI,UACC-62 melanoma,4.37 µM
same,GI50,UO-31 renal,5.65 µM
same,TGI,UO-31 renal,52.9 µM
COc1cc2nc(-c3cccs3)nc(N3C(c4ccc(O)cc4)=NNC(=O)c4ccccc43)c2cc1OC,TGI,786-0 renal,> 100 µM
same,TGI,A498 renal,> 100 µM
same,TGI,A549 NSCLC,> 100 µM
same,TGI,ACHN renal,55 µM
same,TGI,BT-549 breast,42.8 µM
same,TGI,CAKI-1 renal,43.9 µM
same,TGI,CCRF-CEM leukemia,> 100 µM
same,TGI,COLO 205 colon,52.1 µM
same,TGI,DU-145 prostate,> 100 µM
same,TGI,EKVX NSCLC,75.6 µM
same,TGI,HCC-2998 colon,38.5 µM
same,TGI,HCT-116 colon,86 µM
same,TGI,HCT-15 colon,> 100 µM
same,TGI,HOP-62 NSCLC,> 100 µM
same,TGI,HS 578T breast,> 100 µM
same,TGI,HT29 colon,67.9 µM
same,TGI,IGROV1 ovarian,97.7 µM
same,TGI,K-562 leukemia,> 100 µM
same,TGI,KM12 colon,> 100 µM
same,TGI,LOX IMVI melanoma,54.6 µM
same,TGI,M14 melanoma,79.4 µM
same,TGI,MALME-3M melanoma,43.9 µM
same,TGI,MCF7 breast,> 100 µM
same,TGI,MDA-MB-231 breast,42.6 µM
same,TGI,MDA-MB-435,58.9 µM
same,TGI,NCI-H226 lung,41.4 µM
same,TGI,NCI-H23 lung,78.1 µM
same,TGI,NCI-H460 lung,82.1 µM
same,TGI,NCI-H522 lung,> 100 µM
same,TGI,NCI/ADR-RES ovarian,44.3 µM
same,TGI,OVCAR-4 ovarian,> 100 µM
same,TGI,OVCAR-5 ovarian,84.2 µM
same,TGI,OVCAR-8 ovarian,> 100 µM
same,TGI,PC-3 prostate,67.9 µM
same,TGI,RPMI-8226 leukemia,47.9 µM
same,TGI,RXF 393 renal,39.6 µM
same,TGI,SF-268 CNS,77.4 µM
same,TGI,SF-295 CNS,39.4 µM
same,TGI,SF-539 CNS,23.6 µM
same,TGI,SK-MEL-2 melanoma,60.5 µM
same,TGI,SK-MEL-28 melanoma,> 100 µM
same,TGI,SK-MEL-5 melanoma,> 100 µM
same,TGI,SK-OV-3 ovarian,> 100 µM
same,TGI,SN12C renal,50.2 µM
same,TGI,SNB-19 CNS,> 100 µM
same,TGI,SNB-75 CNS,64 µM
same,TGI,SW-620 colon,79.8 µM
same,TGI,T-47D breast,> 100 µM
same,TGI,TK-10 renal,70.5 µM
same,TGI,U251 CNS,75.9 µM
same,TGI,UACC-257 melanoma,84.9 µM
same,TGI,UACC-62 melanoma,43 µM
same,TGI,UO-31 renal,37.4 µM
